Values after ≈ are worked out from the molar mass of the structure shown. Read-outs that look alike come from different tables or passages of the source. Square brackets hold non-standard residues; d marks the D form. Peptide text beside a SMILES is read from it. Cha = N[C@@H](CC1CCCCC1)C(=O)O

In test [1] the target is T1, E. coli SC (^EcSC, beta ring, DnaN) (Escherichia coli, UniProt P0A988).
T1 construct: inferred from the pET15b vector and the Ni-NTA/imidazole purification; made in house; host or cells: E. coli BL21 (DE3) pLys
Briefly: ITC, peptide interaction with E. coli sliding clamp. The test is classed as binding. As to the method:
The DnaN protein was expressed from plasmids pET15b, containing the dnaN gene from E. coli, transfected in BL21 (DE3) pLys E. coli strain. Cells were grown in LB at 37° C. to OD 0.5, then induced by IPTG (0.1 mM) at 28° C. overnight. DnaN protein was first enriched on a Ni-NTA column, eluted with an imidazole step (300 mM) and further purified on a Source Q column in buffer containing 20 mM Tris HCl pH 7.5, 0.5 mM EDTA and 10% glycerol, using a gradient from 0 to 0.5 M NaCl. After a final ultracentrifugation (45K, 1 h, 20° C.), soluble proteins were concentrated on a Centricon 30K (Millipore) in the same buffer and stored at 4° C. in 2 M ammonium sulfate.
ITC experiments were performed on a iTC200 (Microcal Malvern Panalytical) or PEAQ-ITC instrument (Microcal Malvern Panalytical). The E. coli SC were washed extensively with ITC buffer (R1 buffer: 10 mM Hepes pH 7.4, 0.15 M NaCl, 3 mM EDTA) on Centrikon 10K at 4° C. before ITC experiments. […] Similarly, E. coli 70S ribosome particles were also washed extensively with ITC 70S buffer (50 mM Tris HCl pH7.5, 30 mM KCl, 70 mM NH4Cl, 7 mM MgCl2, 1 mM DTT, 5% glycerol) on Centrikon 100K at 4° C. before ITC experiments. […] […] Data were corrected from control experiments in which peptides were injected in ITC buffer solution. Each titration was performed at least twice. Analyses of experimental data were performed with AFFINImeter software (https://www.affinimeter.com; S4S, Santiago de Compostela, Spain).

Test [2] concerns E. coli 70S ribosome (^Ec70S). Briefly: ITC, peptide interaction with E. coli 70S ribosome. Conditions: for Kd / ΔG / ΔH / −TΔS: Table 2B, ^Ec70S, Ni = no specific interaction; for ΔG / ΔH / −TΔS: FITC peptides (*) values not well defined. The test is classed as binding. On the procedure:
E. coli MRE600 cells were grown at 37° C. in LB medium until OD^600=1. Cells were centrifuged at 4° C., and pellets were resuspended in buffer A (20 mM Tris HCl pH 7.5; 200 mM NH4Cl; 20 mM MgCl2; 0.1 mM EDTA; 6 mM β-mercaptoethanol) and lysed using a French press at 1.6 kbar. The crude lysate was centrifuged (18 200 rpm) for 30 mn at 4° C. The supernatant was further centrifuged (47000 rpm) at 4° C. for 4 hours and the pellet resuspended in 12.5 ml of buffer A. This solution was laid on a 30% sucrose cushion and centrifuged (34 000 rpm) for 19 hours at 4° C. The ribosome pellet was resuspended in 12.5 ml buffer B (20 mM Tris HCl pH 7.5; 50 mM NH4Cl; 10 mM MgCl2; 0.1 mM EDTA; 6 mM β-mercaptoethanol) and centrifuged again (18 200 rpm) for 1 hour at 4° C. The supernatant was concentrated on Centrikon 100K (Millipore) and washed extensively with ITC 70S buffer. Ribosome concentration was determined by UV absorption at 260 nm. Samples were snap frozen in liquid nitrogen and kept at −80° C.
ITC experiments were performed on a iTC200 (Microcal Malvern Panalytical) or PEAQ-ITC instrument (Microcal Malvern Panalytical). The E. coli SC were washed extensively with ITC buffer (R1 buffer: 10 mM Hepes pH 7.4, 0.15 M NaCl, 3 mM EDTA) on Centrikon 10K at 4° C. before ITC experiments. […] Similarly, E. coli 70S ribosome particles were also washed extensively with ITC 70S buffer (50 mM Tris HCl pH7.5, 30 mM KCl, 70 mM NH4Cl, 7 mM MgCl2, 1 mM DTT, 5% glycerol) on Centrikon 100K at 4° C. before ITC experiments. Peptides (100 to 400 μM) were titrated at 30° C. (303.15 K) in sequential injections (usually 2 μl each) into a SC (20 or 30 μM) or 70S (10 to 15 μM) solution. Data were corrected from control experiments in which peptides were injected in ITC buffer solution. Each titration was performed at least twice. Analyses of experimental data were performed with AFFINImeter software (https://www.affinimeter.com; S4S, Santiago de Compostela, Spain).
The lack of interaction with the ribosome of E. coli has been measured by ITC at 30° C.:
The interactions of these peptides with the E. coli SC (beta ring) and the ribosome were measured by ITC at […]: […]
(ITC needs no label: the signal is the heat of the interaction.)

Another test has as its system E. coli D22 strain. Briefly: microbe, parasite or virus in culture. The test is classed as cell-based. From the text:
E. coli strain D22 (F-, IpxC101, proA23, lac-28, tsx-81, trp-30, his-51, tufA1, rpsL173(strR), ampCp-1 was purchased at E. coli Genetic Stock Center (Yale University) and used in the determination of MIC and in the peptide penetration assays. E. coli ATCC23724 cells were used to infect D. melanogaster flies. 70S ribosomes were purified from the E. coli MRE600 strain (Accession AY140951) and BL21 (DE3) pLys strain was used for production of the DnaN protein.
E. coli strains were cultivated on either agar or liquid 1× Mueller Hinton broth unless specified. MIC assays were performed in duplicate in 96-well microtiter plates on the basis of the protocol recommended by the Clinical and Laboratory Standards Institute. Briefly, a mix of 5-6 fresh (less than 36 hours) colonies grown on MH agar plates were inoculated in 3 ml of MH broth and incubated for about 16 h at 37° C. under agitation. 30 μl of this saturated culture were inoculated in 3 ml of fresh medium and allowed to grow until OD600 nm of about 0.6-0.8. Dilution to an OD600 nm of 0.002 was made in MH broth. Within a time laps not exceeding 30 min, 50 μl of this cell suspension was added to 50 μl of MH broth (containing or not the peptide/antibiotic diluted in MH broth) in wells of a 96-well round bottom microwell plate (Greiner; final cell density about 2 to 5×10^5 cfu/ml). Plates were incubated at 37° C. for 18-24 h and final turbidity of each well was measured at 620 nm using a Multiskan FC microplate reader (Thermo Scientific). MIC was defined as the minimal antibiotic concentration that result in no increase of turbidity at that time. Each MIC determination was performed in duplicate and at least in two independent experiments. Plating of 75 μl of the content of the wells of interest on LB Agar plates was used to determine the MBC that is defined by a decrease of at least 99.9% of cell viability as compared to the number of viable cells in the inoculum (about 2 to 5×10^4 cfu).

[3] abbreviates: ITC 30° C. (303.15 K), Table 2A, ^EcSC, Ni = no specific interaction.
Where [4] appears, read: ITC 30° C., Table 2A, ^EcSC, Ni = no specific interaction.
Where [5] appears, read: E. coli D22, Mueller Hinton broth, range of at least 2 independent experiments.

T1 sequence (P0A988 whole entry): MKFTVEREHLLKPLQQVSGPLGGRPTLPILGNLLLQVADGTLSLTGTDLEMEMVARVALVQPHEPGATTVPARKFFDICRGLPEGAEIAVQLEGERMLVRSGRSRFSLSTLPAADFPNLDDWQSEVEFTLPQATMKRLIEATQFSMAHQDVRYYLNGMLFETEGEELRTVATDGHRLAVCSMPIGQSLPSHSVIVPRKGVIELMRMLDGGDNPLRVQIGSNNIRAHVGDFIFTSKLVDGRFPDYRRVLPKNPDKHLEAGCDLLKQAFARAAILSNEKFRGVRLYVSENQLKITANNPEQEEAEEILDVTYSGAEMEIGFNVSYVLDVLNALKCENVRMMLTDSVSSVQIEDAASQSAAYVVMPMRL

In the case of `CC[C@H](C)[C@H](NC(=O)[C@@H]1CCCN1C(=O)[C@H](CCCNC(=N)N)NC(=O)[C@@H]1CCCN1C(=O)[C@@H]1CCCN1C(=O)[C@@H](NC(=O)[C@@H]1CCCN1C(=O)[C@H](CCCNC(=N)N)NC(=O)[C@@H]1CCCN1C(=O)[C@H](CC(C)C)NC(=O)[C@H](Cc1ccc(O)cc1)NC(=O)[C@H](CO)NC(=O)CNC(=O)[C@H](CCCCN)NC(=O)[C@H](CC(=O)O)NC(=O)[C@@H](N)C(C)C)[C@@H](C)O)C(=O)N[C@@H](Cc1ccc(O)cc1)C(=O)N[C@@H](CC(N)=O)C(=O)N[C@@H](CCCNC(=N)N)C(=O)N[C@@H](CC(N)=O)C(=O)NCC(=O)N1CCC[C@H]1C(=O)N[C@@H](CCCNC(=N)N)C(=O)N[C@@H](CCC(N)=O)C(=O)N[C@@H](CC1CCCCC1)C(=O)N[C@@H](CC(=O)O)C(=O)N[C@@H](CC(C)C)C(=O)N[C@@H](Cc1ccccc1)C(=O)O` [Peptide P116] (H-VDKGSYLPRPTPPRPIYNRNGPRQ[Cha]DLF-OH), the “interaction with ^EcSC, in words” value in test [1] (ITC 30° C.) is reported as “as efficiently as P7 alone”. Besides, in test [1] (setting [3]), the “ΔH” value is -13.9 kcal/mol. In test [1] (setting [4]), the “ΔG” value was -9.61 kcal/mol and the “−TΔS” value came out at 4.3 kcal/mol. Moreover, in test [2] (ITC 30° C.), the “interaction with ^Ec70S, in words” value is “efficiently interact”; the affinity, expressed as Kd, was 37 nM; the “ΔG” value is -10.3 kcal/mol; the “ΔH” value is -22.3 kcal/mol. For the same compound, the “−TΔS” value in test [2] (ITC 30° C.) was determined as 12 kcal/mol. Moreover, the “affinity for the ribosome relative to affinity for SC” value in test [2] (from Table 2, ^Ec70S versus ^EcSC) is “three times higher affinity”. Further, in the test on E. coli D22 strain (D22 strain), the “MBC” value worked out at 8 µg/mL (≈ 2.42 µM), the “MIC (μM)” value fell in the range of 1.2 to 2.4 µM and the “MIC (μg/ml)” value was 4 to 8 µg/mL. Moreover, in the test on E. coli D22 strain (E. coli D22, microdilution broth assay), the “antibacterial activity, in words” value was “no increase in the activity”.

As to `CC[C@H](C)[C@H](NC(=O)[C@@H]1CCCN1C(=O)[C@H](CCCNC(=N)N)NC(=O)[C@@H]1CCCN1C(=O)[C@@H]1CCCN1C(=O)[C@@H](NC(=O)[C@@H]1CCCN1C(=O)[C@H](CCCNC(=N)N)NC(=O)[C@@H]1CCCN1C(=O)[C@H](CC(C)C)NC(=O)[C@H](Cc1ccc(O)cc1)NC(=O)[C@H](CO)NC(=O)CNC(=O)[C@H](CCCCN)NC(=O)[C@H](CC(=O)O)NC(=O)[C@@H](N)C(C)C)[C@@H](C)O)C(=O)N[C@@H](Cc1ccc(O)cc1)C(=O)N[C@@H](CC(N)=O)C(=O)N[C@@H](CCCNC(=N)N)C(=O)N[C@@H](CC(N)=O)C(=O)NCC(=O)N1CCC[C@H]1C(=O)N[C@@H](CCCNC(=N)N)C(=O)N[C@@H](CC1CCCCC1)C(=O)N[C@@H](Cc1ccccc1)C(=O)N[C@@H](CCC(N)=O)C(=O)N[C@@H](CC(C)C)C(=O)N[C@@H](CC(=O)O)C(=O)O` [Peptide P188], in test [1] (ITC 30° C.), the “interaction with ^EcSC, in words” value is reported as “fail to interact”. In addition, in test [1] (setting [3]), the “ΔH (kcal/mole)” value is on record as “Ni”. Further, in test [1] (setting [4]), the “Kd (nM)” value is listed as “Ni”, the “ΔG (kcal/mole)” value is “Ni” and the “−TΔS (kcal/mole)” value is given as “Ni”. Further, in test [2] (ITC 30° C.), the Kd (commonly a measure of binding affinity in units of concentration) was determined as 75.8 nM, the “ΔG” value is -9.89 kcal/mol, the “ΔH” value is -15.4 kcal/mol and the “−TΔS” value is 5.5 kcal/mol. In the test with E. coli D22 strain (D22 strain), the “MIC (μM)” value fell in the range of 1.2 to 2.4 µM and the “MIC (μg/ml)” value lay in the range of 4 to 8 µg/mL.

In the case of `CN(C)[C@@H]1C(=O)C(C(N)=O)=C(O)[C@@]2(O)C(=O)C3=C(O)c4c(O)cccc4[C@@](C)(O)[C@H]3C[C@@H]12` [Tetracyclin, reference compound], in the test on E. coli D22 strain (setting [5]), the “MIC (μM)” value was in the range of 0.56 to 1.12 µM and the “MIC (μg/ml)” value was 0.25 to 0.5 µg/mL. Also, the “MBC” value against E. coli D22 strain (E. coli D22, decrease of at least 99.9% of cell viability) was found to be 0.5 µg/mL (≈ 1.13 µM).

On to `CC1(C)S[C@@H]2[C@H](NC(=O)[C@H](N)c3ccccc3)C(=O)N2[C@H]1C(=O)O` [Ampicillin, reference compound], for which the MIC with E. coli D22 strain (Escherichia coli, D22STRAIN, E. coli D22, Mueller Hinton broth, range of at least 2 independent experiments, read-out: MIC) fell in the range of 22.9 to 45.8 µM; with E. coli D22 strain (Escherichia coli, D22STRAIN, E. coli D22, Mueller Hinton broth, range of at least 2 independent experiments, read-out: MIC (μg/ml)), 8 to 16 µg/mL. For the same compound, the MBC in the test on E. coli D22 strain (Escherichia coli, D22STRAIN, E. coli D22, decrease of at least 99.9% of cell viability, read-out: MBC) worked out at 16 µg/mL (≈ 45.8 µM).

The values are drawn from patent US12098217B2, “Fusion peptides as antimicrobial agents” (CENTRE NATIONAL DE LA RECHERCHE SCIENTIFIQUE, priority 2019, dated 2024).
